# Experimental data taken from PubChem BioAssay AID1918933 (Molecular Pharmacology Branch, DTP, NCI, 2023).
# Tested on: 186277-243-T-J2-PDC complex spheroid viability
# Test: Anticancer human tumor 186277-243-T-J2-PDC patient-derived colon adenocarcinoma cell line growth inhibition
# Conditions: for IC50: curve of first compound; for viability, T/C: stronger effect = lower value
# Source text: Multicellular complex tumor spheroid response to LSD1 Inhibitor Iadademstat in combination with a variety of drugs and investigational agents in selected tumor cell lines
# The current study was undertaken to assess response to LSD1 inhibitors in combination with standard-of-care drugs and investigational agents in solid tumor complex spheroid models as well as in the K-562 leukemia. Complex spheroids include a stromal component modeled by human endothelial cells (HUVEC) and fibroblasts modeled by human mesenchymal stem cells (MSCs). The concentration ranges selected for each drug and investigational agent were based upon clinically achievable concentrations if the clinical Cmax of the agent was known.
# Compounds. The drugs and investigational agents used in this study are listed on Table 1. All of the agents used, including staurosporine (NSC755774) and gemcitabine (NSC613327), were obtained from the Developmental Therapeutics Program, NCI. FDA-approved anticancer drugs are available from the NCI at http://dtp.nci.nih.gov/branches/dscb/oncology_drugset_explanation.html. Drugs and investigational agents were >95% pure by proton nuclear magnetic resonance (NMR) and liquid chromatography/mass spectrometry (LC/MS). Stock solutions were prepared at 400x in DMSO, stored at -70 degrees C, and diluted in fresh medium prior to their use. The final concentration of DMSO in cell culture wells never exceeded 0.25% (v/v). The FDA-approved anticancer drug set is available from the Developmental Therapeutics Program at https://dtp.cancer.gov/organization/dscb/obtaining/available_plates.htm. All drugs and investigational agents were tested over a range starting from a high concentration at or near the clinical Cmax and decreasing in half-log increments. If the clinical Cmax for an agent had not been determined, the highest concentration tested was 10 microM.
# Cell Lines. The patient-derived cancer cell (PDC) lines: 292921-168-R-J2-PDC, K24384-001-R-PDC, and 521955-158-R2-J5-PDC pancreatic carcinomas, 556581-035-R-J1 ovarian carcinoma, 324938-238-R-J1-PDC, 855422-203-R-J1-PDC and 883617-216-R-J1-PDC urothelial bladder carcinomas, 743489-274-T-PDC renal cell carcinoma, 138582-R-J1 Merkel cell tumor, K60290-347-R-J1 and K57222-313-R-J1-PDC glioblastomas, 653999-131-R-J2-PDC, LG0703-F948-PDC, and 349418-098-R-PDC non-small cell lung carcinomas, 885512-296-R-J2-PDC, 171881-019-R-J1-PDC breast carcinomas and 186277-243-T-J2-PDC and 233499-124-R-J2-PDC colon carcinomas were obtained from the NCI Patient-Derived Models Repository (PDMR, https://pdmr.cancer.gov). The established cell lines NCI/ADR-RES (RRID:CVCL_14520 and OVCAR-5 (RRID:CVCL_1628) ovarian carcinomas, 786-O (RRID:CVCL_1051) and A498 (RRID:CVCL_A498) renal cell carcinoma, NCI-H211 (ATCC, cat. CRL-5824; RRID:CVCL_1529), NCI-H196 (ATCC, cat. CRL-5823, RRID:CVCL_1509), SW 1271 (ATCC, cat. CRL-2177, RRID:CVCL_1716) and NCI-H1876 (ATCC, cat. CRL-5902, RRID:CVCL_1503) small cell lung carcinomas, MDA-MB-231 (RRID:CVCL_0062) and MDA-MB-468 (RRID:CVCL_0419)breast carcinomas (10-12). Pooled donor human umbilical vein endothelial cells (HUVEC, Lonza, cat. CC-2519) and human mesenchymal stem cells (hMSC, Lonza, cat. PT-2501) were purchased from Lonza (Walkersville, MD).
# Cell Culture. All cells were maintained in an incubator at 37 degrees C and 5% CO2 with 95% humidity. The PDC lines were cultured according to standard operating procedures established by the NCI PDMR (https://pdmr.cancer.gov). Briefly all PDCs were thawed and cultured in Matrigel-coated flasks prepared with a working solution of 1X Ham's F-12 nutrient mix, without supplementation (Invitrogen, Waltham, MA, cat. 11765054), 100 U/mL penicillin-streptomycin (Invitrogen, cat. 15140122), and 2.5% Matrigel (Corning Inc., Corning, NY, cat. 354248) for the first three passages. […]
# 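Also: 7 day exposure to compounds.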
# 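For viability, T/C in this document: 100% = DMSO vehicle control viability.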
smiles,measurement,setting,value
CCc1c2c(nc3ccc(O)cc13)-c1cc3c(c(=O)n1C2)COC(=O)[C@]3(O)CC + NC1CC1c1ccc(-c2cccc(O)c2)cc1,IC50,second compound 0.1 µM,< 0.949 nM
same,IC50,second compound 0.316 µM,< 0.949 nM
same,IC50,second compound 1 µM,< 0.949 nM
same,IC50,second compound 3.16 µM,< 0.949 nM
same,IC50,second compound 10 µM,< 0.949 nM
same,"viability, T/C","second compound 0.1 µM, first compound 0.000949 µM",41.8%
same,"viability, T/C","second compound 0.1 µM, first compound 0.003 µM",30.3%
same,"viability, T/C","second compound 0.1 µM, first compound 0.00949 µM",21.5%
same,"viability, T/C","second compound 0.1 µM, first compound 0.03 µM",3.91%
same,"viability, T/C","second compound 0.1 µM, first compound 0.0949 µM",1.18%
same,"viability, T/C","second compound 0.1 µM, first compound 0.3 µM",0.24%
same,"viability, T/C","second compound 0.316 µM, first compound 0.000949 µM",43.1%
same,"viability, T/C","second compound 0.316 µM, first compound 0.003 µM",29.9%
same,"viability, T/C","second compound 0.316 µM, first compound 0.00949 µM",22.4%
same,"viability, T/C","second compound 0.316 µM, first compound 0.03 µM",3.45%
same,"viability, T/C","second compound 0.316 µM, first compound 0.0949 µM",0.15%
same,"viability, T/C","second compound 0.316 µM, first compound 0.3 µM",0.17%
same,"viability, T/C","second compound 1 µM, first compound 0.000949 µM",42.2%
same,"viability, T/C","second compound 1 µM, first compound 0.003 µM",28.3%
same,"viability, T/C","second compound 1 µM, first compound 0.00949 µM",24.3%
same,"viability, T/C","second compound 1 µM, first compound 0.03 µM",3.43%
same,"viability, T/C","second compound 1 µM, first compound 0.0949 µM",0.22%
same,"viability, T/C","second compound 1 µM, first compound 0.3 µM",0.17%
same,"viability, T/C","second compound 3.16 µM, first compound 0.000949 µM",42.7%
same,"viability, T/C","second compound 3.16 µM, first compound 0.003 µM",29%
same,"viability, T/C","second compound 3.16 µM, first compound 0.00949 µM",24%
same,"viability, T/C","second compound 3.16 µM, first compound 0.03 µM",3.34%
same,"viability, T/C","second compound 3.16 µM, first compound 0.0949 µM",0.22%
same,"viability, T/C","second compound 3.16 µM, first compound 0.3 µM",0.16%
same,"viability, T/C","second compound 10 µM, first compound 0.000949 µM",35.4%
same,"viability, T/C","second compound 10 µM, first compound 0.003 µM",23.4%
same,"viability, T/C","second compound 10 µM, first compound 0.00949 µM",17.3%
same,"viability, T/C","second compound 10 µM, first compound 0.03 µM",1.73%
same,"viability, T/C","second compound 10 µM, first compound 0.0949 µM",0.19%
same,"viability, T/C","second compound 10 µM, first compound 0.3 µM",0.23%
